Test system: anesthetized and tracheotomized young cats
Test: Pulmonary administration of drugs dispersed in PFC liquid during liquid ventilation: cardiovascular and airway smooth muscle effects
Format: in vivo, cat
Details: for effect on airway on addition to perfluorocarbon ventilation liquid: added to a perfluorocarbon ventilation liquid
Protocol: When testing the dose-dependency effect of the pulmonary administration of acetylcholine [ACh], the effect after the administration of the drug (expressed as a percentage of the baseline), as a function of the concentration of the drug, was monitored.
Here, the ACh was dispersed in the PFC liquid medium. The initial amount of ACh dispersed in the PFC liquid was 0.01 mg per each kilogram of the laboratory animal's body weight.
(§1) Each of the animals tested had at least one of the following parameters recorded before, during and after the pulmonary administration of the drug: (a) heart rate (bpm), (b) mean arterial pressure (mm Hg), and (c) tracheal pressure (cm water). The averages for each of these recorded parameters were then calculated, depending upon the number of cats tested. These calculated values are plotted on the graph in FIG. 35.
In addition to the above, the following parameters were also monitored and/or controlled: tidal volume, inspiratory and expiratory liquid flow rate, arterial chemistry, pulmonary compliance and resistance, and/or breathing frequency.
For each incremental increase, the animals tested had at least one of the aforementioned parameters recorded before and after the pulmonary administration of the drug.
Also for each incremental increase, the averages for each recorded parameter were calculated and plotted on the graph in FIG. 35.
Another way in which the effect of the pulmonary administration of ACh was tested was by monitoring carotid pressure, as a function of time, before, during and after the pulmonary administration of the drug. Here, 0.6 mg/kg of Ach was dispersed in the PFC liquid medium.
Yet another way in which the effect of the pulmonary administration of ACh was tested was by monitoring tracheal pressure, as a function of time, before, during and after the pulmonary administration of the drug.
Here, 0.6 mg/kg of ACh was dispersed in the PFC liquid medium.
When testing the dose-dependency effect of the pulmonary administration of epinephrine [Epi], the effect after the administration of the drug (expressed as a percentage of the baseline), as a function of the concentration of the drug, was monitored.
Here, the Epi was dispersed in the PFC liquid medium. The initial amount of Epi dispersed in the PFC liquid was 0.01 mg Per each kilogram of the laboratory animal's body weight.
as §1, with “before” for “before, during”, “36.” for “35.”
Also for each incremental increase, the averages for each recorded parameter were calculated and plotted on the graph in FIG. 36.
Another way in which the effect of the pulmonary administration of Epi was tested was by monitoring the change in mean arterial pressure and heart rate resulting from drug delivery.
Here, 0.50 mg/kg of Epi was dispersed in the PFC liquid medium.
When testing the dose-dependency effect of the pulmonary administration of priscoline [P], the effect after the administration of the drug (expressed as a percentage of the baseline), as a function of the concentration of the drug, was monitored.
Here, the P was dispersed in the PFC liquid medium. The initial amount of P dispersed in the PFC liquid was 4 mg.
Each of the animals tested weighed approximately 3 kg. Each of these test animals had at least one of the following parameters recorded before and after the pulmonary administration of the drug: (a) heart rate (bpm), (b) mean arterial pressure (mm Hg), and (c) right ventricular pressure.
The averages for each of the aforementioned recorded parameters were then calculated, depending upon the number of cats tested. These calculated values are plotted on the graph in FIG. 37. […]

[1] = P 4 mg to 12 mg in inspired PFC liquid, animals approx. 3 kg, FIG. 37
[2] = Epi 0.01 to 1.0 mg/kg in inspired PFC liquid, FIG. 36

In the case of `c1ccc(CC2=NCCN2)cc1` [P, priscoline], the “decrease in carotid pressure after drug administration” value (12 mg P in PFC liquid) was “about 30 mm Hg”, the “onset of decrease in carotid pressure after administration” value (12 mg P in PFC liquid) was “almost instantaneously” and the “total time necessary to decrease the carotid pressure by about 30 mm Hg” value (12 mg P in PFC liquid) was “about 10 seconds”. The “heart rate, dose-dependent response (percentage of baseline)” value [1] was “remained fairly constant”, the “mean arterial pressure, dose-dependent response (percentage of baseline)” value [1] was “decreases” and the “right ventricular pressure, dose-dependent response (percentage of baseline)” value [1] was “decreases”.

`CC(C)NCC(O)c1ccc(O)c(O)c1` (centres unmarked) [isoproterenol] was tested, and the “effect on airway on addition to perfluorocarbon ventilation liquid” value was “Airway dilation”.

For `CC(=O)OCC[N+](C)(C)C` [ACh, acetylcholine], the “increase in tracheal pressure after drug administration” value (0.6 mg/kg ACh in PFC liquid) was “about 6 mm Hg”, the “total time necessary to decrease the carotid pressure by about 40 mm Hg” value (0.6 mg/kg ACh in PFC liquid) was “about 10 seconds” and the “total time necessary to increase the tracheal pressure (cm water) by about 5 mm Hg” value (0.6 mg/kg ACh in PFC liquid) was “about 20 seconds”. The “decrease in carotid pressure after drug administration” value (0.6 mg/kg ACh in PFC liquid, via endotracheal tube) was “about 40 mm Hg”.

In the case of `CNC[C@H](O)c1ccc(O)c(O)c1` [Epi, epinephrine], the “decrease in tracheal pressure after drug administration” value (0.50 mg/kg Epi in PFC liquid) was 31%, the “increase in heart rate after drug administration” value (0.50 mg/kg Epi in PFC liquid) was 33% and the “heart rate, dose-dependent response (percentage of baseline)” value [2] was “increases”. The “mean arterial pressure, dose-dependent response (percentage of baseline)” value [2] was “increases”, the “peak tracheal pressure, dose-dependent response (percentage of baseline)” value [2] was “decrease” and the “effect on airway on addition to perfluorocarbon ventilation liquid” value was “Airway dilation”.
